Assay results as given in PubChem BioAssay (NCI).
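48-hour exposure; five concentrations; linearly interpolated endpoints. Definition used: TGI = concentration required for complete inhibition of growth.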

Tests used:
Assay in all cases: growth of human tumour cells (NCI), 48 h
786-0 renal = tested on: 786-0 renal
A498 renal = tested on: A498 renal
A549 NSCLC = tested on: A549 NSCLC
ACHN renal = tested on: ACHN renal
BT-549 breast = tested on: BT-549 breast
CAKI-1 renal = tested on: CAKI-1 renal
CCRF-CEM leukemia = tested on: CCRF-CEM leukemia
COLO 205 colon = tested on: COLO 205 colon
DU-145 prostate = tested on: DU-145 prostate
EKVX NSCLC = tested on: EKVX NSCLC
HCC-2998 colon = tested on: HCC-2998 colon
HCT-116 colon = tested on: HCT-116 colon
HCT-15 colon = tested on: HCT-15 colon
HL-60(TB) leukemia = tested on: HL-60(TB) leukemia
HOP-62 NSCLC = tested on: HOP-62 NSCLC
HOP-92 NSCLC = tested on: HOP-92 NSCLC
HS 578T breast = tested on: HS 578T breast
HT29 colon = tested on: HT29 colon
IGROV1 ovarian = tested on: IGROV1 ovarian
K-562 leukemia = tested on: K-562 leukemia
KM12 colon = tested on: KM12 colon
LOX IMVI melanoma = tested on: LOX IMVI melanoma
M14 melanoma = tested on: M14 melanoma
MALME-3M melanoma = tested on: MALME-3M melanoma
MCF7 breast = tested on: MCF7 breast
MDA-MB-231 breast = tested on: MDA-MB-231 breast
MDA-MB-435 = tested on: MDA-MB-435
MDA-N = tested on: MDA-N
MOLT-4 leukemia = tested on: MOLT-4 leukemia
NCI-H23 lung = tested on: NCI-H23 lung
NCI-H460 lung = tested on: NCI-H460 lung
NCI-H522 lung = tested on: NCI-H522 lung
NCI/ADR-RES ovarian = tested on: NCI/ADR-RES ovarian
OVCAR-3 ovarian = tested on: OVCAR-3 ovarian
OVCAR-5 ovarian = tested on: OVCAR-5 ovarian
OVCAR-8 ovarian = tested on: OVCAR-8 ovarian
PC-3 prostate = tested on: PC-3 prostate
RPMI-8226 leukemia = tested on: RPMI-8226 leukemia
RXF 393 renal = tested on: RXF 393 renal
SF-268 CNS = tested on: SF-268 CNS
SF-295 CNS = tested on: SF-295 CNS
SF-539 CNS = tested on: SF-539 CNS
SK-MEL-2 melanoma = tested on: SK-MEL-2 melanoma
SK-MEL-28 melanoma = tested on: SK-MEL-28 melanoma
SK-MEL-5 melanoma = tested on: SK-MEL-5 melanoma
SK-OV-3 ovarian = tested on: SK-OV-3 ovarian
SN12C renal = tested on: SN12C renal
SNB-19 CNS = tested on: SNB-19 CNS
SNB-75 CNS = tested on: SNB-75 CNS
SR leukemia = tested on: SR leukemia
SW-620 colon = tested on: SW-620 colon
T-47D breast = tested on: T-47D breast
TK-10 renal = tested on: TK-10 renal
U251 CNS = tested on: U251 CNS
UACC-257 melanoma = tested on: UACC-257 melanoma
UACC-62 melanoma = tested on: UACC-62 melanoma
UO-31 renal = tested on: UO-31 renal
NCI-H226 lung = tested on: NCI-H226 lung
OVCAR-4 ovarian = tested on: OVCAR-4 ovarian

`COc1ccc2[nH]c(Cl)c(/C=C3/C(=O)Nc4cc(C)c(OC)cc43)c2c1` was tested, and the TGI (786-0 renal) was 19.8 µM, the TGI (A498 renal) was 19.2 µM and the TGI (A549 NSCLC) was 92.6 µM. It also gave a TGI (ACHN renal) of 21.4 µM, a TGI (BT-549 breast) of 21.5 µM and a TGI (CAKI-1 renal) of 21.7 µM. It also gave a TGI (CCRF-CEM leukemia) of 19.1 µM, a TGI (COLO 205 colon) of 5.9 µM and a TGI (DU-145 prostate) of 29.4 µM. The TGI (EKVX NSCLC) was 22.7 µM, the TGI (HCC-2998 colon) was 17.2 µM and the TGI (HCT-116 colon) was 15.7 µM. For the same compound, the TGI (HCT-15 colon) was 12.9 µM, the TGI (HL-60(TB) leukemia) was 6.08 µM and the TGI (HOP-62 NSCLC) was 18.5 µM. It also gave a TGI (HOP-92 NSCLC) of 28.9 µM, a TGI (HS 578T breast) of 20.9 µM and a TGI (HT29 colon) of 15 µM. The TGI (IGROV1 ovarian) was 17.1 µM, the TGI (K-562 leukemia) was > 100 µM and the TGI (KM12 colon) was 23.2 µM. The TGI (LOX IMVI melanoma) was 17.5 µM, the TGI (M14 melanoma) was 14.2 µM and the TGI (MALME-3M melanoma) was 18.2 µM. The TGI (MCF7 breast) was 14.4 µM, the TGI (MDA-MB-231 breast) was 20.6 µM and the TGI (MDA-MB-435) was 3.51 µM. The TGI (MDA-N) was 3.5 µM, the TGI (MOLT-4 leukemia) was > 100 µM and the TGI (NCI-H23 lung) was 19 µM. For the same compound, the TGI (NCI-H460 lung) was 12.9 µM, the TGI (NCI-H522 lung) was 9.62 µM and the TGI (NCI/ADR-RES ovarian) was 6.47 µM. The TGI (OVCAR-3 ovarian) was 6.46 µM, the TGI (OVCAR-5 ovarian) was 27.2 µM and the TGI (OVCAR-8 ovarian) was 25.7 µM. For the same compound, the TGI (PC-3 prostate) was 16.1 µM, the TGI (RPMI-8226 leukemia) was > 100 µM and the TGI (RXF 393 renal) was 27.9 µM. It also gave a TGI (SF-268 CNS) of 19.3 µM, a TGI (SF-295 CNS) of 6 µM and a TGI (SF-539 CNS) of 4.8 µM. For the same compound, the TGI (SK-MEL-2 melanoma) was 7.8 µM, the TGI (SK-MEL-28 melanoma) was 22.1 µM and the TGI (SK-MEL-5 melanoma) was 6.32 µM. It also gave a TGI (SK-OV-3 ovarian) of 9.4 µM, a TGI (SN12C renal) of 20.1 µM and a TGI (SNB-19 CNS) of 22.2 µM. For the same compound, the TGI (SNB-75 CNS) was 23.4 µM, the TGI (SR leukemia) was > 100 µM and the TGI (SW-620 colon) was 18.1 µM. It also gave a TGI (T-47D breast) of 30.4 µM, a TGI (TK-10 renal) of 21.3 µM and a TGI (U251 CNS) of 18 µM. It also gave a TGI (UACC-257 melanoma) of 23.6 µM, a TGI (UACC-62 melanoma) of 15.2 µM and a TGI (UO-31 renal) of 28.5 µM.
With `NC(=Nc1ccc(O)cc1)S(=O)(=O)O` the TGI (786-0 renal) was > 100 µM, the TGI (A498 renal) was > 100 µM and the TGI (A549 NSCLC) was > 100 µM. For the same compound, the TGI (ACHN renal) was > 100 µM, the TGI (BT-549 breast) was > 100 µM and the TGI (CAKI-1 renal) was > 100 µM. For the same compound, the TGI (CCRF-CEM leukemia) was > 100 µM, the TGI (COLO 205 colon) was > 100 µM and the TGI (DU-145 prostate) was > 100 µM. The TGI (EKVX NSCLC) was > 100 µM, the TGI (HCC-2998 colon) was > 100 µM and the TGI (HCT-116 colon) was > 100 µM. For the same compound, the TGI (HCT-15 colon) was > 100 µM, the TGI (HL-60(TB) leukemia) was > 100 µM and the TGI (HOP-62 NSCLC) was > 100 µM. For the same compound, the TGI (HOP-92 NSCLC) was > 100 µM, the TGI (HS 578T breast) was > 100 µM and the TGI (HT29 colon) was > 100 µM. The TGI (IGROV1 ovarian) was > 100 µM, the TGI (K-562 leukemia) was > 100 µM and the TGI (KM12 colon) was > 100 µM. The TGI (LOX IMVI melanoma) was > 100 µM, the TGI (M14 melanoma) was > 100 µM and the TGI (MALME-3M melanoma) was > 100 µM. For the same compound, the TGI (MCF7 breast) was > 100 µM, the TGI (MDA-MB-231 breast) was > 100 µM and the TGI (MDA-MB-435) was > 100 µM. The TGI (MDA-N) was > 100 µM, the TGI (MOLT-4 leukemia) was > 100 µM and the TGI (NCI-H226 lung) was > 100 µM. The TGI (NCI-H23 lung) was > 100 µM, the TGI (NCI-H460 lung) was > 100 µM and the TGI (NCI-H522 lung) was > 100 µM. The TGI (NCI/ADR-RES ovarian) was > 100 µM, the TGI (OVCAR-3 ovarian) was > 100 µM and the TGI (OVCAR-4 ovarian) was > 100 µM. The TGI (OVCAR-5 ovarian) was > 100 µM, the TGI (OVCAR-8 ovarian) was > 100 µM and the TGI (PC-3 prostate) was > 100 µM. The TGI (RXF 393 renal) was > 100 µM, the TGI (SF-268 CNS) was > 100 µM and the TGI (SF-295 CNS) was > 100 µM. For the same compound, the TGI (SF-539 CNS) was > 100 µM, the TGI (SK-MEL-2 melanoma) was > 100 µM and the TGI (SK-MEL-5 melanoma) was > 100 µM. For the same compound, the TGI (SK-OV-3 ovarian) was > 100 µM, the TGI (SN12C renal) was > 100 µM and the TGI (SNB-19 CNS) was > 100 µM. For the same compound, the TGI (SNB-75 CNS) was > 100 µM, the TGI (SR leukemia) was > 100 µM and the TGI (SW-620 colon) was > 100 µM. The TGI (T-47D breast) was > 100 µM, the TGI (TK-10 renal) was > 100 µM and the TGI (U251 CNS) was > 100 µM. The TGI (UACC-257 melanoma) was > 100 µM, the TGI (UACC-62 melanoma) was > 100 µM and the TGI (UO-31 renal) was > 100 µM.
